Measurements from patent US10118947B2, “Modulation of structured polypeptide specificity” (BICYCLE THERAPEUTICS LIMITED, priority 2013, dated 2018).
Like-named read-outs stand apart in the source and are kept apart here. Numbered stars: 1 amine (or outer) side, 2 acyl side, 3 side chain; on linkers, the order of the positions; unused ones are H or OH. Bridge positions count the residues as written; N and C are the ends. Square brackets hold non-standard residues; d marks the D form. Peptide text beside a SMILES is read from it. Gly(N-CH2CH2-imidazol-4-yl) = O=C(O)CNCCc1c[nH]cn1; His(τ-Me) = Cn1cnc(C[C@H](N)C(=O)O)c1; TBMB = c1c(C[*:1])cc(C[*:3])cc1C[*:2]; 4Pal = N[C@@H](Cc1ccncc1)C(=O)O; 2Thi = N[C@@H](Cc1cccs1)C(=O)O; β3hQ = NC(=O)CC[C@H](N)CC(=O)O; Agb = N=C(N)NCC[C@H](N)C(=O)O; Phg = N[C@H](C(=O)O)c1ccccc1; Dap = NC[C@H](N)C(=O)O; Sar = CNCC(=O)O

Target: T1, human plasma Kallikrein (Homo sapiens, UniProt P03952)
T1 construct: purchased Stratech, UK
Test: Functional enzyme inhibition assay with fluorogenic substrate Z-PheArg-AMC, human plasma Kallikrein
Format: biochemical
Experimental: Functional enzyme assays were conducted in 10 mM Tris HCl, 150 mM NaCl, 10 mM MgCl2, 1 mM CaCl2) and 1 mg/mL BSA (all Sigma UK) pH7.4 at 25° C. in solid black 96 well plates. Briefly 26.5 pM human plasma Kallikrein (purchased from Stratech, UK) or 500 pM rat plasma Kallikrein (expressed and purified in house) were incubated in the absence or presence of increasing concentrations of test peptide for 15 minutes before addition of the fluorogenic substrate Z-PheArg-AMC (Enzo Lifesciences UK) to a final assay concentration of 100 μM in 4% DMSO. Release of AMC was measured using a Pherastar FS (BMG Labtech), excitation 360 nm, emission 460 nm. The rate of the linear phase of the reaction, typically 5 to 45 minutes, was calculated in MARS data analysis software (BMG labtech). The rate was then used to calculate the IC50 and Ki in Prism (GraphPad). A four parameter inhibition non-linear regression equation was used to calculate the IC50.
Peptides were dissolved as the TFA-salts in their powder form, and stock solutions were usually prepared in water. All solutions were centrifuged and filtered ([…] syringe filters) prior absorption measurement at 280 nm. […] For peptides containing non-natural amino acids with suspected chromophoric properties (i.e. NorHar, 4PhenylPro, 3Pal, 4Pal, Tic, 4GuanPhe, 4,4-BPAI, 3,3-DPA, 1NAI, 2NAI, 4BenzylPro, Ind) concentrations were determined by weighing the powder and dissolving the peptide in a defined quantity of water.

[1] = Table 24b, residue 7 modifications, read-out: Ki
[2] = Table 24b, ratio of Ki to wild type
[3] = Table 3c, D-Alanine scan in Loop2, read-out: Ki
[4] = Table 3c, ratio of Ki to wild type

T1 sequence (P03952 20-638): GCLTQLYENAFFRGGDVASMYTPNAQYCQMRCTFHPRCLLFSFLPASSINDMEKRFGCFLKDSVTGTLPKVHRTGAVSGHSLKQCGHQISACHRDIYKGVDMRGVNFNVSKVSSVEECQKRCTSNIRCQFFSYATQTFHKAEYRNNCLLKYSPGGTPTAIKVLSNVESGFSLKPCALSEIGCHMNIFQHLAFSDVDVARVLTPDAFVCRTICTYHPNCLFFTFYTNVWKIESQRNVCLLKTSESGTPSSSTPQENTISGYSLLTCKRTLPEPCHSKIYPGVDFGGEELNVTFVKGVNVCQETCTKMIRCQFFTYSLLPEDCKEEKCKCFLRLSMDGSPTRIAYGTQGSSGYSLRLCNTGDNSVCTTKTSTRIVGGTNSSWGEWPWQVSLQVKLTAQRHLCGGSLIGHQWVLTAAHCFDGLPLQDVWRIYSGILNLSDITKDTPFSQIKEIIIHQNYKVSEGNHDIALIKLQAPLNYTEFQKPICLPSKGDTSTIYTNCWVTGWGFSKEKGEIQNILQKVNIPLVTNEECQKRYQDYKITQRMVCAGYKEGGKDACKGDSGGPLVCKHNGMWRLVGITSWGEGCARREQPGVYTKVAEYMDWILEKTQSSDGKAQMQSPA

CC(=O)N[C@H]1CSCc2cc3cc(c2)CSC[C@H](NC(=O)[C@H](CCCNC(=N)N)NC(=O)[C@H](Cc2ccc(O)cc2)NC(=O)[C@@H]2CCCN2C(=O)[C@H](Cc2ccccc2)NC(=O)[C@H](CO)NC1=O)C(=O)N[C@@H](CC(C)C)C(=O)N(CCc1c[nH]cn1)CC(=O)N[C@@H](CCC(N)=O)C(=O)N[C@@H](CC(=O)O)C(=O)N[C@@H](CC(C)C)C(=O)N[C@H](C(N)=O)CSC3 [Ac-(06-34-18) Phe2 Tyr4 N-His7] (Ac-CSFPYRCL[Gly(N-CH2CH2-imidazol-4-yl)]QDLC-NH2; linker 1-7-13 via TBMB)
F (Kivar/KiWT) (Table 25b, fold change of Ki of variant compared to WT): 519
Ki (Table 25b, peptide backbone modifications in Loop2, human plasma kallikrein, read-out: Ki): 218 nM

CC[C@H](C)[C@@H]1NC(=O)[C@@H]2CSCc3cc(cc(c3)CSC[C@H](NC(C)=O)C(=O)N[C@@H](CO)C(=O)N[C@@H](Cc3ccccc3)C(=O)N3CCC[C@H]3C(=O)N[C@@H](Cc3ccc(O)cc3)C(=O)N[C@@H](CCCNC(=N)N)C(=O)N2)CSC[C@@H](C(N)=O)NC(=O)[C@H](CC(C)C)NC(=O)[C@H](CC(=O)O)NC(=O)[C@H](CCC(N)=O)NC(=O)[C@H](Cc2c[nH]cn2)NC1=O [Ac-(06-34-18) Phe2 Tyr4 Ile6] (Ac-CSFPYRCIHQDLC-NH2; linker 1-7-13 via TBMB)
Ki (Table 24a, residue 6 modification in the context of Ac-(06-34-18) Phe2 Tyr4, read-out: Ki (nM) Ac-(06-34-18) Phe2 Tyr4): 1.46 nM

CC(C)C[C@@H]1NC(=O)[C@H](CC(=O)O)NC(=O)[C@H](CCC(N)=O)NC(=O)[C@H](Cc2c[nH]cn2)NC(=O)CN(C)C(=O)[C@@H]2CSCc3cc(cc(c3)CSC[C@H](NC(=O)[C@H](C)N)C(=O)N(C)CC(=O)N[C@@H](Cc3c[nH]c4ccccc34)C(=O)N3CCC[C@H]3C(=O)N[C@@H](C)C(=O)N[C@@H](CCCNC(=N)N)C(=O)N2)CSC[C@@H](C(=O)N[C@@H](C)C(N)=O)NC1=O [06-34-03-N-MeGly1,6, ACN-MeGWPARC(N-MeG)HQDLCA] (H-AC[Sar]WPARC[Sar]HQDLCA-NH2; linker 2-8-14 via TBMB; N-terminus and C-terminus assumed)
potency / binding to kallikrein (in words): reduction in potency

CC(=O)N[C@H]1CSCc2cc3cc(c2)CSC[C@H](NC(=O)[C@H](CCCNC(=N)N)NC(=O)[C@H](Cc2ccc(O)cc2)NC(=O)[C@@H]2CCCN2C(=O)[C@H](Cc2ccccc2)NC(=O)[C@H](CO)NC1=O)C(=O)N[C@@H](CC(C)C)C(=O)N[C@@H](Cc1cccs1)C(=O)N[C@@H](CCC(N)=O)C(=O)N[C@@H](CC(=O)O)C(=O)N[C@@H](CC(C)C)C(=O)N[C@H](C(N)=O)CSC3 [Ac-(06-34-18) Phe2 Tyr4 Thi7] (Ac-CSFPYRCL[2Thi]QDLC-NH2; linker 1-7-13 via TBMB)
Ki [1]: 34 nM
F (Kivar/KiWT) [2]: 80

CC(=O)N[C@H]1CSCc2cc3cc(c2)CSC[C@H](NC(=O)[C@H](CCCNC(=N)N)NC(=O)[C@H](Cc2ccc(O)cc2)NC(=O)[C@@H]2CCCN2C(=O)[C@H](Cc2ccccc2)NC(=O)[C@H](CO)NC1=O)C(=O)N[C@@H](CC(C)C)C(=O)N[C@@H](Cc1ccccc1)C(=O)N[C@@H](CCC(N)=O)C(=O)N[C@@H](CC(=O)O)C(=O)N[C@@H](CC(C)C)C(=O)N[C@H](C(N)=O)CSC3 [Ac-(06-34-18) Phe2 Tyr4 Phe7] (Ac-CSFPYRCLFQDLC-NH2; linker 1-7-13 via TBMB)
Ki [1]: 43 nM
F (Kivar/KiWT) [2]: 102

CC(C)C[C@@H]1NC(=O)[C@H](CC(=O)O)NC(=O)[C@H](CCC(N)=O)NC(=O)[C@H](Cc2c[nH]cn2)NC(=O)[C@H](C)NC(=O)[C@@H]2CSCc3cc(cc(c3)CSC[C@@H](C(=O)N[C@@H](C)C(N)=O)NC1=O)CSC[C@H](NC(=O)[C@H](C)N)C(=O)N[C@@H](C)C(=O)N[C@@H](Cc1c[nH]c3ccccc13)C(=O)N1CCC[C@H]1C(=O)N[C@@H](C)C(=O)N[C@@H](CCCNC(=N)N)C(=O)N2 [06-34-03-Ala1,6] (H-ACAWPARCAHQDLCA-NH2; linker 2-8-14 via TBMB)
potency / binding to kallikrein (in words): retained full potency compared to the parent

CC(=O)N[C@H]1CSCc2cc3cc(c2)CSC[C@H](NC(=O)[C@H](CCCNC(=N)N)NC(=O)[C@H](Cc2ccc(O)cc2)NC(=O)[C@@H]2CCCN2C(=O)[C@H](Cc2ccccc2)NC(=O)[C@H](CO)NC1=O)C(=O)N[C@@H](CC(C)C)C(=O)N[C@@H](CN)C(=O)N[C@@H](CCC(N)=O)C(=O)N[C@@H](CC(=O)O)C(=O)N[C@@H](CC(C)C)C(=O)N[C@H](C(N)=O)CSC3 [Ac-(06-34-18) Phe2 Tyr4 Dap7] (Ac-CSFPYRCL[Dap]QDLC-NH2; linker 1-7-13 via TBMB)
Ki [1]: 246 nM
F (Kivar/KiWT) [2]: 586

CC(=O)N[C@H]1CSCc2cc3cc(c2)CSC[C@H](NC(=O)[C@H](CCCNC(=N)N)NC(=O)[C@H](Cc2ccc(O)cc2)NC(=O)[C@@H]2CCCN2C(=O)[C@H](Cc2ccccc2)NC(=O)[C@H](CO)NC1=O)C(=O)N[C@@H](CC(C)C)C(=O)N[C@@H](Cc1ccncc1)C(=O)N[C@@H](CCC(N)=O)C(=O)N[C@@H](CC(=O)O)C(=O)N[C@@H](CC(C)C)C(=O)N[C@H](C(N)=O)CSC3 [Ac-(06-34-18) Phe2 Tyr4 4Pal7] (Ac-CSFPYRCL[4Pal]QDLC-NH2; linker 1-7-13 via TBMB)
Ki [1]: 79 nM
F (Kivar/KiWT) [2]: 187

CC(=O)N[C@H]1CSCc2cc3cc(c2)CSC[C@H](NC(=O)[C@H](CCCNC(=N)N)NC(=O)[C@H](Cc2ccc(O)cc2)NC(=O)[C@@H]2CCCN2C(=O)[C@H](Cc2ccccc2)NC(=O)[C@H](CO)NC1=O)C(=O)N[C@@H](CC(C)C)C(=O)N[C@@H](Cc1c[nH]cn1)C(=O)N[C@@H](CCC(N)=O)CC(=O)N[C@@H](CC(=O)O)C(=O)N[C@@H](CC(C)C)C(=O)N[C@H](C(N)=O)CSC3 [Ac-(06-34-18) Phe2 Tyr4 bHGln8] (Ac-CSFPYRCLH[β3hQ]DLC-NH2; linker 1-7-13 via TBMB)
Ki (Table 24c, residue 8 modifications, read-out: Ki): 16.8 nM
F (Kivar/KiWT) (Table 24c, ratio of Ki to wild type): 40

CC(=O)N[C@H]1CSCc2cc3cc(c2)CSC[C@H](NC(=O)[C@H](CCCNC(=N)N)NC(=O)[C@H](C)NC(=O)[C@@H]2CCCN2C(=O)[C@H](Cc2c[nH]c4ccccc24)NC(=O)[C@H](CO)NC1=O)C(=O)N[C@H](C)C(=O)N[C@@H](Cc1c[nH]cn1)C(=O)N[C@@H](CCC(N)=O)C(=O)N[C@@H](CC(=O)O)C(=O)N[C@@H](CC(C)C)C(=O)N[C@H](C(N)=O)CSC3 [Ac-(06-34-18) D-Ala6] (Ac-CSWPARC[dA]HQDLC-NH2; linker 1-7-13 via TBMB)
Ki [3]: 1040 nM
F (Kivar/KiWT) [4]: 2469

CC(=O)N[C@H]1CSCc2cc3cc(c2)CSC[C@H](NC(=O)[C@H](CCCNC(=N)N)NC(=O)[C@H](C)NC(=O)[C@@H]2CCCN2C(=O)[C@H](Cc2c[nH]c4ccccc24)NC(=O)[C@H](CO)NC1=O)C(=O)N[C@@H](CC(C)C)C(=O)N[C@@H](Cc1c[nH]cn1)C(=O)N[C@@H](CCC(N)=O)C(=O)N[C@H](C)C(=O)N[C@@H](CC(C)C)C(=O)N[C@H](C(N)=O)CSC3 [Ac-(06-34-18) D-Ala9] (Ac-CSWPARCLHQ[dA]LC-NH2; linker 1-7-13 via TBMB)
Ki [3]: 0.87 nM
F (Kivar/KiWT) [4]: 2

CC(=O)N[C@H]1CSCc2cc3cc(c2)CSC[C@H](NC(=O)[C@H](CCCNC(=N)N)NC(=O)[C@H](Cc2ccc(O)cc2)NC(=O)[C@@H]2CCCN2C(=O)[C@H](Cc2ccccc2)NC(=O)[C@H](CO)NC1=O)C(=O)N[C@@H](CC(C)C)C(=O)N[C@@H](CCNC(=N)N)C(=O)N[C@@H](CCC(N)=O)C(=O)N[C@@H](CC(=O)O)C(=O)N[C@@H](CC(C)C)C(=O)N[C@H](C(N)=O)CSC3 [Ac-(06-34-18) Phe2 Tyr4 Agb7] (Ac-CSFPYRCL[Agb]QDLC-NH2; linker 1-7-13 via TBMB)
Ki [1]: 2250 nM
F (Kivar/KiWT) [2]: 5365

CC(=O)N[C@H]1CSCc2cc3cc(c2)CSC[C@H](NC(=O)[C@H](CCCNC(=N)N)NC(=O)[C@H](Cc2ccc(O)cc2)NC(=O)[C@@H]2CCCN2C(=O)[C@H](Cc2ccccc2)NC(=O)[C@H](CO)NC1=O)C(=O)N[C@@H](CC(C)C)C(=O)N[C@@H](Cc1cn(C)cn1)C(=O)N[C@@H](CCC(N)=O)C(=O)N[C@@H](CC(=O)O)C(=O)N[C@@H](CC(C)C)C(=O)N[C@H](C(N)=O)CSC3 [Ac-(06-34-18) Phe2 Tyr4 His1Me7] (Ac-CSFPYRCL[His(τ-Me)]QDLC-NH2; linker 1-7-13 via TBMB)
Ki [1]: 10 nM
F (Kivar/KiWT) [2]: 23

CC(=O)N[C@H]1CSCc2cc3cc(c2)CSC[C@H](NC(=O)[C@H](CCCNC(=N)N)NC(=O)[C@H](C)NC(=O)[C@@H]2CCCN2C(=O)[C@H](Cc2c[nH]c4ccccc24)NC(=O)[C@H](CO)NC1=O)C(=O)N[C@@H](c1ccccc1)C(=O)N[C@@H](Cc1c[nH]cn1)C(=O)N[C@@H](CCC(N)=O)C(=O)N[C@@H](CC(=O)O)C(=O)N[C@@H](CC(C)C)C(=O)N[C@H](C(N)=O)CSC3 [Ac-(06-34-18) Phg6] (Ac-CSWPARC[Phg]HQDLC-NH2; linker 1-7-13 via TBMB)
Ki (Table 24a, residue 6 modification in the context of Ac-(06-34-18), read-out: Ki (nM) Ac-(06-34-18)): 0.18 nM
